According to patent US4870210A, “Aminoguanidine derivative as anti-inflammatory agents” (American Home Products Corporation, priority 1987, dated 1989):

Key:
[1] = rat carrageenan paw edema assay; assay type: in vivo, rat (male Sprague-Dawley); conditions: po, 3 h, read-out: Oral ED50 (95% C.L.)
Protocol: The compounds of the invention are further tested in the rat carrageenan paw edema assay to determine their ability to inhibit the acute inflammatory response. This assay is carried out as follows: 140-180 gm male Sprague-Dawley rats, in groups of 6 animals are injected subcutaneously in the right paw with 0.1 ml of 1% carrageenan at zero time. Mercury plethysmographic readings (ml) of the paw are made at zero time and 3 hours later. Test compounds are suspended or dissolved in 0.5% methylcellulose and given perorally 1 hour prior to carrageenan administration. The increase in paw volume (edema in ml.) produced by the carrageenan is measured. […] Unpaired Student's t-test is used to determine statistical significance.

[2] = test system: synthesis of LTC4 by murine peritoneal macrophages; test: inhibition of the synthesis of LTC4 by murine peritoneal macrophages; assay type: cell-based, mouse (CD-1); conditions: Mus musculus, Peritoneal macrophage, zymosan or TPA stimulus, RIA
Protocol: (§1) The ability of the compounds of the invention to inhibit both leukotriene and prostaglandin synthesis is examined in an assay which measures the ability of the compounds of the invention to inhibit the synthesis of PGE2 and LTC4 by murine peritoneal macrophages.
(§2) The assay is carried out as follows:
(§3) Macrophages are removed from the peritoneal cavity of 55-57 day old CD-1 mice (killed by CO2 asphyxiation) by peritoneal lavage and centrifuged at 400×g for ten minutes. The cells are resuspended in Medium 199 and 4×10^6 cells are allowed to adhere on 35×10 mm Petri dishes for 1.5 hours at 37° C. in an atmosphere of 95% air and 5% CO2. The cell monolayers are washed and incubated overnight in Medium 199 supplemented with 10% heat inactivated bovine serum containing 1 μCi[^14 C]-arachidonic acid, or in the absence of ^14 C-arachidonic acid when the supernatant is to be assayed by radioimmunoassay (RIA). The labeled cells are then washed and incubated at 37° C. for 2 hours in Medium 199 with the prostaglandin stimuli, zymosan, or 12-o-tetradecanoyl-phorbol-13-acetate (TPA) and in the presence or absence of test compounds. Following incubation, the supernatant is removed and subjected to radioimmunoassay in order to determine the percent inhibition of prostaglandin E2 and leukotriene C4 by the test compounds.

[3] = test system: synthesis of PGE2 by murine peritoneal macrophages; test: inhibition of the synthesis of PGE2 by murine peritoneal macrophages; assay type: cell-based, mouse (CD-1); conditions: Mus musculus, Peritoneal macrophage, zymosan or TPA stimulus, RIA
Protocol: as §1, §2, §3

[4] = test system: synthesis of LTB4 by rat glycogenelicited polymorphonuclear leukocytes (PMN); test: inhibition of the synthesis of LTB4 (lipoxygenase oxidation product) by rat glycogen-elicited polymorphonuclear leukocytes (PMN); assay type: cell-based, rat (female Wistar); conditions: Leukocyte, A23187 stimulated
Protocol: This is especially true with respect to 5,12-diHETE, which also denoted as LTB4 [see Ford-Hitchinson, J. Roy. Soc. Med., 74, 831 (1981)]. The assay of this Example measures the ability of the compounds of the invention to inhibit the synthesis of LTB4 by rat glycogenelicited polymorphonuclear leukocytes (PMN).
as §2
(§4) Rat polymorphonuclear leukocytes (PMNs) are obtained from female Wistar rats (150-200 g) which receive an injection of 6% glycogen (10 ml i.p.). Rats are sacrificed 18-24 hours post injection by CO2 asphyxiation and the elicited cells are harvested by peritoneal lavage using physiological saline (0.9% NaCl). The exudate is centrifuged at 400×g for 10 minutes. The supernatant fluid is discarded and the cell pellet is resuspended in a concentration of 2.0×10^7 cells/ml in HBSS containing Ca^++ and Mg^++ and 10 μM L-cyteine.
To 1 ml aliquots of cell suspension, test drugs or vehicle are added, then preincubated at 37° C. for 10 minutes. […] Supernatants are then analyzed by HPLC analysis on a 15 cm×4.6 mm ID Supelcosil LC-18 (Supelco)(3M) column, using a two solvent system at a flow rate of 1.4 ml total flow as follows: […]
Injections: 150 μl of each supernatant is injected directly onto column and ^3 H arachidonic acid metabolites are monitored using an on-line radioactivity detector (Ramona, IN/US, Fairfield, NJ). […]

[5] = test system: synthesis of the arachidonic acid cyclooxygenase oxidation product TxB2; test: inhibition of the synthesis of the cyclooxygenase oxidation product TxB2 by rat polymorphonuclear leukocytes; assay type: cell-based, rat (female Wistar); conditions: Leukocyte; rat PMN, A23187 stimulated
Protocol: as §4
To 1 ml aliquots of cell suspension, test drugs or vehicle are added, then preincubated at 37° C. for 10 minutes. A23187 (1 μM) and [^3 H]-AA (3.0 μCi/ml) are then added and the samples are further incubated for 10 minutes. The reaction is terminated by centrifugation and pelleting cells. Supernatants are then analyzed by HPLC analysis on a 15 cm×4.6 mm ID Supelcosil LC-18 (Supelco)(3M) column, using a two solvent system at a flow rate of 1.4 ml total flow as follows:
Co-chromatography with standard [^3 H] leukotriene B4 (LTB4) in medium of stimulated PMN exposed to drug is compared to that found in medium of stimulated cells exposed to no drug, generating percent inhibition.
In this assay, the procedure of Example 3 is carried out as described. […]
The results are calculated as in Example 3 and presented below: […]

| Structure (SMILES) | ED50 [1] [mg/kg] | IC50 [2] [µM] | IC50 [3] [µM] | IC50 [4] [µM] | IC50 [5] [µM] |
| --- | --- | --- | --- | --- | --- |
| CC(=O)Oc1ccccc1C(=O)O [Aspirin] | 145 |  |  |  |  |
| CC(=NNC(=N)N)c1cccc(OCc2ccc3ccccc3c2)c1 [Example 1, 2-[1-[3-(2-Naphthalenylmethoxy)phenyl]ethylidene]-hydrazinecarboximidamide] |  | 33 | 43 | 8.9 | 11.2 |
| COc1ccc2c(c1)c(CC(=O)O)c(C)n2C(=O)c1ccc(Cl)cc1 [Indomethacin] | 3.7 |  |  |  |  |
